The values below come from US9884063B2, “Amido-substituted azole compounds” (Bayer Pharma Aktiengesellschaft, priority 2014, dated 2018).

The test deals with T1, TNKS2 (Homo sapiens, UniProt Q9H2K2).
T1 sequence (Q9H2K2 1-1166): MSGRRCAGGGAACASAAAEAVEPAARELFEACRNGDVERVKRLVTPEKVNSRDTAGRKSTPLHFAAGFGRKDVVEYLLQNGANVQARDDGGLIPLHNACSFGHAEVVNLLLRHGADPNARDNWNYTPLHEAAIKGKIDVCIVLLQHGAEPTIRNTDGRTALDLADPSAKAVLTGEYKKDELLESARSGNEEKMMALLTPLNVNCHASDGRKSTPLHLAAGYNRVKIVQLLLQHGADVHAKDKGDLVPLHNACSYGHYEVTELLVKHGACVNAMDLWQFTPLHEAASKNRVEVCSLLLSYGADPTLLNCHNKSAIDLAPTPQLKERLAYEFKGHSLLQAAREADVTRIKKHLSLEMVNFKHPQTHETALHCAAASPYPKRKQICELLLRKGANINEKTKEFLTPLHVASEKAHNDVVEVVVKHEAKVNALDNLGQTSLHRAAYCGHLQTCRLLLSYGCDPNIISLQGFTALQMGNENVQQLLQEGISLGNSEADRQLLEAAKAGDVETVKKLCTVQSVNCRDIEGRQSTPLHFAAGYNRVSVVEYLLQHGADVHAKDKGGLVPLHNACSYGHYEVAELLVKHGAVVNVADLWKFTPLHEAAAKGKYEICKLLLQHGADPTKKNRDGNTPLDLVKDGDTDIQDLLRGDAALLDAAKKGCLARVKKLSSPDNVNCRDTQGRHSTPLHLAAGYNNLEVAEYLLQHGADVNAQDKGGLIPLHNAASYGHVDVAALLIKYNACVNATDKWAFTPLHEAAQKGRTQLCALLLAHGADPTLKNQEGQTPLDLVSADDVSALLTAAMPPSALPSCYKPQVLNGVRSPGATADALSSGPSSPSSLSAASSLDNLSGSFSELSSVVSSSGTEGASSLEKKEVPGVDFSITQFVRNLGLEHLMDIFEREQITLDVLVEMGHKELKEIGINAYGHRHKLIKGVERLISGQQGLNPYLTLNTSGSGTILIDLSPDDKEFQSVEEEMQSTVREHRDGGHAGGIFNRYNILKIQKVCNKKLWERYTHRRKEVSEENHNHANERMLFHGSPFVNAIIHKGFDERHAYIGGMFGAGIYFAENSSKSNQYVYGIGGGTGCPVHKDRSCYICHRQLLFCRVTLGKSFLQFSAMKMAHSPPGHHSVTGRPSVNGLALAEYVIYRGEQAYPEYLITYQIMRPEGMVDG
The test can be described thus: Modified TNKS2 Assay 2 (auto-parsylation, [3H]-NAD+ SPA). The note with it: 6 nM TNKS2, 96 well. Type of test: biochemical.

The term IC50 denotes the concentration that inhibits the measured activity by half. A lower IC50 goes with greater potency in that assay.

Regarding `O=C(Nc1ccc(NC(=O)c2[nH]cnc2C(=O)NCCC2CCCC2)cc1)c1ccc(F)cc1Cl` [Example 42, N^5-{4-[(2-chloro-4-fluorobenzoyl)amino]phenyl}-N^4-(2-cyclopentylethyl)-1H-imidazole-4,5-dicarboxamide], the IC50 is greater than 10000 nM. As for `CNC(=O)c1nc[nH]c1C(=O)Nc1ccc(NC(=O)c2c(F)ccc(F)c2Cl)cc1` [Example 374, N^5-{4-[(2-chloro-3,6-difluorobenzoyl)amino]phenyl}-N^4-methyl-1H-imidazole-4,5-dicarboxamide], the IC50 came out at 1300 nM. This lies in the single-digit micromolar range. `CCc1nc(C(=O)Nc2ccc(NC(=O)c3ccc(F)cc3Cl)cc2)c(C(=O)NC)[nH]1` [Example 68, N^4-{4-[(2-chloro-4-fluorobenzoyl)amino]phenyl}-2-ethyl-N^5-methyl-1H-imidazole-4,5-dicarboxamide] registered an IC50 greater than 10000 nM. The compound `CNC(=O)c1nc[nH]c1C(=O)Nc1ccc(NC(=O)c2cccc(F)c2OC)cc1` [Example 367, N^5-{4-[(3-fluoro-2-methoxybenzoyl)amino]phenyl}-N^4-methyl-1H-imidazole-4,5-dicarboxamide] had an IC50 greater than 10000 nM. The compound `CN(C)CCNC(=O)c1nc[nH]c1C(=O)Nc1ccc(NC(=O)c2ccc(F)cc2)c(F)c1` [Example 77, N^4-[2-(dimethylamino)ethyl]-N^5-{3-fluoro-4-[(4-fluorobenzoyl)amino]phenyl}-1H-imidazole-4,5-dicarboxamide] returned an IC50 of 1800 nM.

Turning to `O=C(Nc1ccc(NC(=O)c2[nH]cnc2C(=O)NCCC2CC2)cc1)c1ccc(F)cc1Cl` [Example 43, N^5-{4-[(2-chloro-4-fluorobenzoyl)amino]phenyl}-N^4-(2-cyclopropylethyl)-1H-imidazole-4,5-dicarboxamide], the concentration for half-maximal inhibition (IC50) was greater than 10000 nM. Consider `CNC(=O)c1nc[nH]c1C(=O)Nc1ccc(NC(=O)c2ccc(S(C)(=O)=O)cc2Cl)cc1` [Example 55, N^5-(4-{[2-chloro-4-(methylsulfonyl)benzoyl]amino}phenyl)-N^4-methyl-1H-imidazole-4,5-dicarboxamide], for which half-maximal inhibition (IC50) required 70 nM. The compound `CN(C)CCNC(=O)c1nc[nH]c1C(=O)Nc1ccc(NC(=O)c2ccccc2Cl)c(F)c1` [Example 81, N^5-{4-[(2-chlorobenzoyl)amino]-3-fluorophenyl}-N^4-[2-(dimethylamino)ethyl]-1H-imidazole-4,5-dicarboxamide] had a half-maximal inhibitory concentration (IC50) of 160 nM. `CNC(=O)c1nc[nH]c1C(=O)Nc1ccc(NC(=O)c2cc(OC(F)(F)F)ccc2Br)cc1` [Example 64, N^5-(4-{[2-bromo-5-(trifluoromethoxy)benzoyl]amino}phenyl)-N^4-methyl-1H-imidazole-4,5-dicarboxamide] had a half-maximal inhibitory concentration (IC50) greater than 10000 nM. As for `CNC(=O)c1nc[nH]c1C(=O)Nc1ccc(NC(=O)c2ccc(F)c(Cl)c2F)cc1` [Example 359, N^5-{4-[(3-chloro-2,4-difluorobenzoyl)amino]phenyl}-N^4-methyl-1H-imidazole-4,5-dicarboxamide], the half-maximal inhibitory concentration (IC50) was greater than 10000 nM.

`O=C(Nc1ccc(NC(=O)c2[nH]cnc2C(=O)NCCc2ccncc2)cc1)c1ccc(F)cc1Cl` [Example 394, N^5-{4-[(2-chloro-4-fluorobenzoyl)amino]phenyl}-N^4-[2-(pyridin-4-yl)ethyl]-1H-imidazole-4,5-dicarboxamide] yielded an IC50 of 60 nM. Under `CNC(=O)c1nc[nH]c1C(=O)Nc1ccc(NC(=O)c2cccc(Cl)n2)cc1` [Example 353, N^5-(4-{[(6-chloropyridin-2-yl)carbonyl]amino}phenyl)-N^4-methyl-1H-imidazole-4,5-dicarboxamide] stands greater than 10000 nM; under `CNC(=O)c1nc[nH]c1C(=O)Nc1ccc(NC(=O)c2cc(C#N)ccc2F)cc1` [Example 349, N^5-{4-[(5-cyano-2-fluorobenzoyl)amino]phenyl}-N^4-methyl-1H-imidazole-4,5-dicarboxamide], 2200 nM; under `NCCNC(=O)c1[nH]cnc1C(=O)Nc1ccc(NC(=O)c2ccc(F)cc2Cl)cc1` [Example 290, N^5-(2-aminoethyl)-N^4-{4-[(2-chloro-4-fluorobenzoyl)amino]phenyl}-1H-imidazole-4,5-dicarboxamide], 110 nM. The compound `CCNC(=O)c1nc[nH]c1C(=O)Nc1ccc(NC(=O)c2cccc(OC)c2Cl)cc1` [Example 260, N^5-{4-[(2-chloro-3-methoxybenzoyl)amino]phenyl}-N^4-ethyl-1H-imidazole-4,5-dicarboxamide] displayed an IC50 of 6200 nM. For `CCNC(=O)c1nc[nH]c1C(=O)Nc1ccc(NC(=O)c2ncccc2Cl)cc1` [Example 261, N^5-(4-{[(3-chloropyridin-2-yl)carbonyl]amino}phenyl)-N^4-ethyl-1H-imidazole-4,5-dicarboxamide], the IC50 is 210 nM. Take `CNC(=O)c1nc[nH]c1C(=O)Nc1ccc(NC(=O)c2c(F)cc(F)cc2F)cc1` [Example 342, N^4-methyl-N^5-{4-[(2,4,6-trifluorobenzoyl)amino]phenyl}-1H-imidazole-4,5-dicarboxamide]: 540 nM corresponded to half-maximal inhibition (IC50). Under `COC(=O)c1nc[nH]c1C(=O)Nc1ccc(NC(=O)c2ccc(F)cc2Cl)c(F)c1` [Example 71, methyl 5-({4-[(2-chloro-4-fluorobenzoyl)amino]-3-fluorophenyl}carbamoyl)-1H-imidazole-4-carboxylate] stands 110 nM; under `CNC(=O)c1nc[nH]c1C(=O)Nc1ccc(NC(=O)c2c(C)cccc2F)cc1` [Example 375, N^5-{4-[(2-fluoro-6-methylbenzoyl)amino]phenyl}-N^4-methyl-1H-imidazole-4,5-dicarboxamide], 1200 nM. As for `CNC(=O)c1nc[nH]c1C(=O)Nc1ccc(NC(=O)c2ccc(C)c(Cl)c2)cc1` [Example 344, N^5-{4-[(3-chloro-4-methylbenzoyl)amino]phenyl}-N^4-methyl-1H-imidazole-4,5-dicarboxamide], the figure is greater than 10000 nM; as for `CNC(=O)c1nc[nH]c1C(=O)Nc1ccc(NC(=O)c2cccc(F)c2Cl)cc1` [Example 370, N^5-{4-[(2-chloro-3-fluorobenzoyl)amino]phenyl}-N^4-methyl-1H-imidazole-4,5-dicarboxamide], 2200 nM; as for `CNC(=O)c1nc[nH]c1C(=O)Nc1ccc(NC(=O)c2nccnc2Cl)cc1` [Example 372, N^5-(4-{[(3-chloropyrazin-2-yl)carbonyl]amino}phenyl)-N^4-methyl-1H-imidazole-4,5-dicarboxamide], 4800 nM. `CNC(=O)c1nc[nH]c1C(=O)Nc1ccc(NC(=O)c2ccc(Br)cc2Cl)cc1` [Example 334, N^5-{4-[(4-bromo-2-chlorobenzoyl)amino]phenyl}-N^4-methyl-1H-imidazole-4,5-dicarboxamide] came in with an IC50 of 30 nM. Compound `Cc1cc(NC(=O)c2[nH]cnc2C(=O)NCCN2CCCCC2)ccc1NC(=O)c1ccc(F)cc1Cl` [Example 85, N^5-{4-[(2-chloro-4-fluorobenzoyl)amino]-3-methylphenyl}-N^4-[2-(piperidin-1-yl)ethyl]-1H-imidazole-4,5-dicarboxamide] displayed an IC50 of 10 nM. Compound `CNC(=O)c1nc[nH]c1C(=O)Nc1ccc(NC(=O)c2cc(F)ccc2Cl)cc1` [Example 361, N^5-{4-[(2-chloro-5-fluorobenzoyl)amino]phenyl}-N^4-methyl-1H-imidazole-4,5-dicarboxamide] registered a 50% inhibitory concentration (IC50) of 100 nM. In turn, `O=C(Nc1ccc(NC(=O)c2[nH]cnc2C(=O)NCCc2ccccn2)cc1)c1ccc(F)cc1Cl` [Example 387, N^5-{4-[(2-chloro-4-fluorobenzoyl)amino]phenyl}-N^4-[2-(pyridin-2-yl)ethyl]-1H-imidazole-4,5-dicarboxamide] gave a half-inhibitory concentration (IC50) of 150 nM. The compound `CNC(=O)c1nc[nH]c1C(=O)Nc1ccc(NC(=O)c2ccccc2Cl)c(F)c1` [Example 80, N^5-{4-[(2-chlorobenzoyl)amino]-3-fluorophenyl}-N^4-methyl-1H-imidazole-4,5-dicarboxamide] displayed a 50% inhibitory concentration (IC50) of 700 nM. `CNC(=O)c1nc[nH]c1C(=O)Nc1ccc(NC(=O)c2ncccc2C)cc1` [Example 356, N^4-methyl-N^5-(4-{[(3-methylpyridin-2-yl)carbonyl]amino}phenyl)-1H-imidazole-4,5-dicarboxamide]: the IC50 is 940 nM. This IC50 and that of the compound before are within 1.5-fold of each other. `Cc1cc(NC(=O)c2[nH]cnc2C(=O)NCCN(C)C)ccc1NC(=O)c1ccc(F)cc1Cl` [Example 84, N^5-{4-[(2-chloro-4-fluorobenzoyl)amino]-3-methylphenyl}-N^4-[2-(dimethylamino)ethyl]-1H-imidazole-4,5-dicarboxamide] yielded a half-maximal inhibitory concentration (IC50) of 260 nM.
